Where a name gives a salt, the structure may show the parent alone. Read-outs that look alike come from different tables or passages of the source.
Assays:
Msep5-HT7L receptor [1] = target: T1, Msep5-HT7L receptor (Mythimna separata, UniProt A0AAD7YHG5); experiment: cAMP assay, agonist activation of Msep5-HT7L in stably transfected HEK293 cells; assay type: cell-based; set-up: Emax: dose or concentration left out as unconfirmed; conditions: for effect on intracellular cAMP levels: 10 μM, HEK293 cells expressing Msep5-HT7L; for Emax: HEK293, read-out: activation compared with maximum cAMP stimulation by same concentration of 5-HT
Protocol: (§1) HEK-293 cells were cultured in D-MEM (Gibco BRL, Gaithersburg, MD, USA) supplemented with 10% FBS (Gibco BRL, Gaithersburg, MD, USA) at 37 °C and 5% CO2. Four microgram recombinant plasmids with 10 μL of lipofectamine 2000 (Invitrogen, Carlsbad, CA, USA) were introduced into exponentially growing HEK 293 cells. The 0.8 mg/mL antibiotic G418 (Sigma, St. Louis, MO, USA) was added to the medium to select for cells that were stably expressed the Msep5-HT7 receptors. After fourteen days of G418 selection, three G418-resistant colonies were trypsinized in cloning cylinders and transferred to 12-well plastic plates for expansion.
(§2) Intracellular cAMP concentrations were measured as previously described. Briefly, when cells were cultured for 2 days to the concentration of 1 × 10^6 cells/mL, culture media were removed and the cells were washed two times with cold PBS (pH 7.4), then the cells were preincubated in 450 μL of Dulbecco’s phosphate-buffered solution (DPBS) containing 100 μM phosphodiesterase inhibitor 3-isobutyl-1-methylxanthine (IBMX) for 20 min at room temperature. After the preincubation, 50 μL of DPBS, containing various concentrations of reagents, was added into the stable transfected cells for incubation for 30 min at 37 °C. The cells were washed three times with cold PBS (pH 7.4) and then lysed in 250 μL of cold cell lysis buffer by re-freezing. The cell debris was removed by centrifugation at 600× g for 10 min at 4 °C. The amount of intracellular cAMP extracted from harvested supernatant was determined using an ELISA reagent (R&D Systems, Minneapolis, MN, USA). Each measurement was performed in duplicate, and three independent assays were carried out for each reagent and concentration tested.

Msep5-HT7L receptor [2] = experiment: as above; assay type: cell-based, Mythimna separata; set-up: Emax: dose or concentration left out as unconfirmed; conditions: ratio of EC50 values
Protocol: as §1, §2

Msep5-HT7S receptor [3] = target: T2, Msep5-HT7S receptor (Mythimna separata, UniProt A0AAD7YHG5, DEL320-414); experiment: cell-based; assay type: cell-based; set-up: Emax: dose or concentration left out as unconfirmed; conditions: for Emax: HEK293, read-out: activation compared with maximum cAMP stimulation by 5-HT; for fold higher agonist potency against Msep5-HT7S than Msep5-HT7L: ratio of EC50 values
Protocol: as §1, §2

5-HT7 receptor [4] = conditions: 5-HT7 receptor from T. castaneum; ref [36]; cited from earlier work
Msep5-HT7L receptor [5] = target: T1, Msep5-HT7L receptor; experiment: cAMP assay, antagonist block of 5-HT-induced response in HEK293 cells expressing Msep5-HT7L; assay type: cell-based; conditions: against 5 μM 5-HT
Protocol: as §1, §2

Msep5-HT7L receptor [6] = experiment: as above; assay type: cell-based; conditions: for decrease of 5-HT induced response: 40 μM antagonist (8-fold) with 5 μM 5-HT, range stated for all antagonists and both isoforms; for antagonist potency or efficacy, Msep5-HT7L compared with Msep5-HT7S: inhibition of 5-HT-induced cAMP production, based on 95% fiducial limits
Protocol: as §1, §2

Msep5-HT7S receptor [7] = target: T2, Msep5-HT7S receptor; experiment: cAMP assay, antagonist block of 5-HT-induced response in HEK293 cells expressing Msep5-HT7S; assay type: cell-based; conditions: for inhibition at 40 µM: HEK293, read-out: decrease of 5-HT induced response
Protocol: as §1, §2

5-HT7 receptor [8] = experiment: literature pharmacology of C. vicina 5-HT7 receptor; conditions: 5-HT7 receptor from C. vicina vs the two Msep5-HT7 isoforms
5-HT7 receptor [9] = conditions: 5-HT7 receptor from T. castaneum vs the two Msep5-HT7 isoforms
5-HT7 receptor [10] = conditions: 5-HT7 receptor from C. vicina; ref [28],[36],[46]; cited from earlier work
[11] = tested on: larvae of Mythimna separata; set-up: method as in PMID 20000410; conditions: ref [22]; cited from earlier work
5-HT7 receptor [12] = conditions: 5-HT7 receptor from A. mellifera; ref [17],[27]; cited from earlier work
5-HT1 receptor = target: 5-HT1 receptor; set-up: method as in PMID 23741451, PMID 16945110; conditions: 5-HT1 receptor from T. castaneum; ref [17],[27]; cited from earlier work
[13] = EC50, 5-HT7L, cAMP production, HEK-293 cells
[14] = logEC50 (Mean ± SEM), 5-HT7L, cAMP production, HEK-293 cells, given as negative log value
[15] = 10 μM, HEK293 cells expressing Msep5-HT7S
[16] = EC50, 5-HT7S, cAMP production, HEK-293 cells
[17] = logEC50 (Mean ± SEM), 5-HT7S, cAMP production, HEK-293 cells, given as negative log value
[18] = logIC50 (Mean ± SEM), 5-HT7L, given as negative log value
[19] = IC50, 5-HT7S, against 5 μM 5-HT, HEK-293 cells
[20] = logIC50 (Mean ± SEM), 5-HT7S, against 5 μM 5-HT, given as negative log value

T1 sequence (A0AAD7YHG5 entry or part of it): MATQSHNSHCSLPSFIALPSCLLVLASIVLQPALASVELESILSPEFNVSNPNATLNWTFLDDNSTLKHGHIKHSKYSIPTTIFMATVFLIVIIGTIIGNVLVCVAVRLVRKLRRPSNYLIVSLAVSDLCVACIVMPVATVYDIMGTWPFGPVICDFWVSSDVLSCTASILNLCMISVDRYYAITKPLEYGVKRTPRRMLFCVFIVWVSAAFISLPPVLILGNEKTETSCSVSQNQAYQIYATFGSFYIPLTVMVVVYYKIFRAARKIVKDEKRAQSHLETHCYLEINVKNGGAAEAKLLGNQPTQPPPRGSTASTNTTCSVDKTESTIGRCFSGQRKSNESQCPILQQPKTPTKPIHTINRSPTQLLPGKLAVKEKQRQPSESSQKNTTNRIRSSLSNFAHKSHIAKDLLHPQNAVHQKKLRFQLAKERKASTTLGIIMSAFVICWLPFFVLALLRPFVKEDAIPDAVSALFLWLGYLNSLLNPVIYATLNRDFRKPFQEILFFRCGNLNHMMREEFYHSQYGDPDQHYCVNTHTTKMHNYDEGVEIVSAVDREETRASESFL
T2 sequence (A0AAD7YHG5 entry or part of it DEL320-414): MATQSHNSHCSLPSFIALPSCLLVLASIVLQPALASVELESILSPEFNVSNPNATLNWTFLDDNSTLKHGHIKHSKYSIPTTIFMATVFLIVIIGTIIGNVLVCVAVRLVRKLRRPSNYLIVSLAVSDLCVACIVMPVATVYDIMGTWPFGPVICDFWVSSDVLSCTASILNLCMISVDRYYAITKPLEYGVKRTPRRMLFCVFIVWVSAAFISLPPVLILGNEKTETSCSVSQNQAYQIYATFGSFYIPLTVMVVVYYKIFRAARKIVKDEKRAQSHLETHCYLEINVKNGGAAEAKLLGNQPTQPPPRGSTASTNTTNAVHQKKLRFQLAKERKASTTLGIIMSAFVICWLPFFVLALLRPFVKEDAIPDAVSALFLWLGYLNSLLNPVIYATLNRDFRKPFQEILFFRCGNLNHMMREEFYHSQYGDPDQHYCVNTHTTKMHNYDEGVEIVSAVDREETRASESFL

SMILES | effect on intracellular cAMP levels (Msep5-HT7L receptor [1]) | effect on intracellular cAMP levels (Msep5-HT7S receptor [3]; [15]) | IC50 (Msep5-HT7L receptor [5]; IC50, 5-HT7L, HEK-293 cells) [µM] | IC50 (Msep5-HT7L receptor [5]; [18]) [µM] | decrease of 5-HT induced response (Msep5-HT7L receptor [6]) | antagonist potency or efficacy, Msep5-HT7L compared with Msep5-HT7S (Msep5-HT7L receptor [6]) | inhibition at 40 µM (Msep5-HT7S receptor [7]) [%] | IC50 (Msep5-HT7S receptor [7]; [19]) [µM] | IC50 (Msep5-HT7S receptor [7]; [20]) [µM] | further results
CCCN(CCC)C1CCc2cccc(O)c2C1 (racemic) [8-OH-DPAT, (±)-8-hydroxy-2-(dipropylamino) tetralin hydrobromide] | activated | only αm-5-HT significantly increased cAMP levels |  |  |  |  |  |  |  | EC50 (Msep5-HT7L receptor [1]; [13]): 10.1 µM; Emax (Msep5-HT7L receptor [1]): < 30%; EC50 (Msep5-HT7L receptor [1]; [14]): 10 µM; fold higher agonist potency against Msep5-HT7L than Msep5-HT7S (Msep5-HT7L receptor [2]): 2.4 fold; EC50 (Msep5-HT7S receptor [3]; [16]): 24.8 µM; Emax (Msep5-HT7S receptor [3]): < 30%; EC50 (Msep5-HT7S receptor [3]; [17]): 24.5 µM; efficacy fold lower than 5-HT (5-HT7 receptor [4]): about 2 fold; potency fold lower than 5-HT (5-HT7 receptor [4]): more than 190 fold
NCC(O)c1ccc(O)cc1 (racemic) [octopamine, (±)-octopamine hydrochloride] | only 5-HT significantly increased cAMP levels | only 5-HT significantly increased cAMP levels |  |  |  |  |  |  |  | 
NCCc1c[nH]c2ccc(O)cc12 [5-HT, serotonin hydrochloride] | significantly increased cAMP levels | significantly increased cAMP levels |  |  |  |  |  |  |  | 
COc1ccc2[nH]cc(CCN)c2c1 [5-MT, 5-methoxytryptamine] | activated | only αm-5-HT significantly increased cAMP levels |  |  |  |  |  |  |  | EC50 (Msep5-HT7L receptor [1]; [13]): 20.9 µM; Emax (Msep5-HT7L receptor [1]): ~69%; EC50 (Msep5-HT7L receptor [1]; [14]): 20.9 µM; EC50 (Msep5-HT7S receptor [3]; [16]): 19.4 µM; Emax (Msep5-HT7S receptor [3]): ~35%; EC50 (Msep5-HT7S receptor [3]; [17]): 19.5 µM; fold higher agonist potency against Msep5-HT7S than Msep5-HT7L (Msep5-HT7S receptor [3]): roughly equivalent; efficacy fold lower than 5-HT (5-HT7 receptor [4]): about 2 fold; potency fold lower than 5-HT (5-HT7 receptor [4]): more than 190 fold
O=C(c1ccc(F)cc1)C1CCN(CCn2c(=O)[nH]c3ccccc3c2=O)CC1 [Ketanserin] |  |  | 46.9 | 46.8 | 33–60% | higher antagonistic activity | 33 to 60 | 84.9 | 85.1 | fold higher inhibitory potency than against Msep5-HT7L and Msep5-HT7S (5-HT7 receptor [8]): 20- to 50 fold; fold higher inhibitory potency than against Msep5-HT7L and Msep5-HT7S (5-HT7 receptor [9]): 20- to 50 fold; IC50 (5-HT7 receptor [4]): 1.95 µM; IC50 (5-HT7 receptor [10]): 1.5 µM
CSc1ccc2c(c1)C(N1CCN(C)CC1)Cc1ccccc1S2 (centres unmarked) [Methiothepin, methiothepin mesylate] |  |  | 87.2 | 87.1 | 33–60% | no significant differences | 33 to 60 | 62.9 | 63.1 | 
Nc1ccc(CCN2CCN(c3cccc(C(F)(F)F)c3)CC2)cc1 [PAPP, 1-[(4-aminophenyl)ethyl]-4-[3-(trifluoromethyl)phenyl] piperazine] |  |  |  |  |  |  |  |  |  | effect on larvae [11]: inhibit the growth or kill the larvae
Cc1cccc(S(=O)(=O)N(C)[C@H](C)CCN2CCC(C)CC2)c1 [SB-258719] |  |  | 55.3 | 55 | 33–60% | no significant differences | 33 to 60 | 64 | 64.6 | 
CC1CCN(CC[C@H]2CCCN2S(=O)(=O)c2cccc(O)c2)CC1 [SB-269970, (R)-3-(2-(2-(4-methylpiperidin-1-yl)ethyl)pyrrolidine-1-sulfonyl) phenol] |  |  | 70.4 | 70.8 | 33–60% | no significant differences | 33 to 60 | 67.8 | 67.6 | antagonistic effect (5-HT7 receptor [12]): poor antagonistic effect; IC50 (5-HT1 receptor): 205 µM
COc1ccccc1N1CCN(CCN(C(=O)C2CCCCC2)c2ccccn2)CC1 [WAY-100635] |  |  |  |  | 33–60% | higher antagonistic activity |  |  |  | IC50 (Msep5-HT7L receptor [5]; 5-HT7L, HEK-293 cells, read-out: IC50): 36.1 µM; logIC50 (Mean ± SEM) (Msep5-HT7L receptor [5]; 5-HT7L, given as negative log value): −4.44 ± 0.04; IC50 (Msep5-HT7S receptor [7]; 5-HT7S, against 5 μM 5-HT, HEK-293 cells, read-out: IC50): 70.3 µM; logIC50 (Mean ± SEM) (Msep5-HT7S receptor [7]; 5-HT7S, against 5 μM 5-HT, given as negative log value): −4.15 ± 0.02; IC50 (5-HT7 receptor [4]): 76.8 µM
NCCc1ccc(O)c(O)c1 [dopamine, dopamine hydrochloride] | only 5-HT significantly increased cAMP levels |  |  |  |  |  |  |  |  | effect on intracellular cAMP levels (Msep5-HT7S receptor [3]): only 5-HT significantly increased cAMP levels
NCCc1ccc(O)cc1 [tyramine, tyramine hydrochloride] | only 5-HT significantly increased cAMP levels | only 5-HT significantly increased cAMP levels |  |  |  |  |  |  |  | 
CC(N)Cc1c[nH]c2ccc(O)cc12.O=C(O)/C=C\C(=O)O (stereo not drawn) [αm-5-HT, α-methylserotonin maleate] | activated | significantly increased cAMP levels |  |  |  |  |  |  |  | logEC50 (Mean ± SEM) (Msep5-HT7L receptor [1]; 5-HT7L, cAMP production, HEK-293 cells, given as negative log value): −4.86 ± 0.04; EC50 (Msep5-HT7L receptor [1]; 5-HT7L, cAMP production, HEK-293 cells, read-out: EC50): 13.9 µM; activation compared with maximum cAMP stimulation by same concentration of 5-HT (Msep5-HT7L receptor [1]; highest concentration 1 mM, Msep5-HT7L): about 69%; activation compared with maximum cAMP stimulation by 5-HT (Msep5-HT7S receptor [3]): about 35%; logEC50 (Mean ± SEM) (Msep5-HT7S receptor [3]; 5-HT7S, cAMP production, HEK-293 cells, given as negative log value): −5.23 ± 0.29; EC50 (Msep5-HT7S receptor [3]; 5-HT7S, cAMP production, HEK-293 cells, read-out: EC50): 5.9 µM; fold higher agonist potency against Msep5-HT7S than Msep5-HT7L (Msep5-HT7S receptor [3]): 2.3 fold; efficacy fold lower than 5-HT (5-HT7 receptor [4]): about 2 fold; potency fold lower than 5-HT (5-HT7 receptor [4]): more than 190 fold
